Key:
rats mâles de souche OFA [1] = assay: anti-ulcer activity against a necrotising agent (e.g. absolute ethanol), oral, rat; assay type: in vivo; settings: v.o., 30 min before necrotising agent, stomachs removed 1 h after, dose reducing lesions by 50 %, determined graphically, read-out: activité anti-ulcère vis à vis d'un agent nécrosant DA 50 Mg/Kg v.o.
Procedure: (§1) Des lots de 10 à 30 rats mâles de souche OFA (Iffa Credo), pesant 160-180 g, sont mis à la diète hydrique 24 h avant l'administration orale du produit étudié. Trente minutes plus tard, un agent ulcérigène médicamenteux ou un agent nécrosant (exemple : éthanol absolu) est administré par voie orale à des doses qui entraînent chez les animaux témoins une ulcération gastrique maximale. Les estomacs sont prélevés, selon le test, respectivement 6 et 1 h après le dernier traitement. Les lésions gastriques sont alors évaluées macroscopiquement (cotation et mesure de l'ampleur des ulcères).
(§2) Ils sont exprimés sous forme de dose active 50 déterminée graphiquement. Cette dose exprime la dose nécessaire pour réduire de 50 % les lésions ulcéreuses observées chez les animaux témoins.

rats mâles de souche OFA [2] = assay: anti-ulcer activity against a non-steroidal anti-inflammatory (ulcerogenic drug), oral, rat; assay type: in vivo; settings: v.o., 30 min before ulcerogenic drug, stomachs removed 6 h after, dose reducing lesions by 50 %, determined graphically, read-out: activité anti-ulcère vis à vis d'un anti-inflammatoire non stéroïdien DA 50 Mg/Kg v.o.
Procedure: as §1, §2

Row | SMILES | ED50 (rats mâles de souche OFA [1]) | ED50 (rats mâles de souche OFA [2])
1 | C=CCSc1nc2ccc(-n3ccnc3)cc2[nH]1 [Exemple 129, (imidazolyl-1)-5 (allylthio)-2 benzimidazole] | 0.33 mg/kg | –
2 | CSc1nc2ccc(-n3ccnc3)cc2[nH]1 [Exemple 128, (Imidazolyl-1)-5 (méthylthio)-2 benzimidazole] | 4.5 mg/kg | 18.3 mg/kg
3 | Cn1c(=S)[nH]c2ccc(-n3ccnc3)cc21 [Exemple 124, (imidazolyl-1)-5 méthyl-3 benzimidazole thione-2] | 4.5 mg/kg | –
4 | C#CCSc1nc2ccc(-n3ccnc3)cc2[nH]1 [Exemple 130, (Imidazolyl-1)-5 (propargylthio)-2 benzimidazole] | 0.48 mg/kg | 9.24 mg/kg

— EP0385850A2, “Benzimidazole and azabenzimidazole derivatives, process for their preparation, synthesis intermediates, pharmaceutical compositions containing them, useful for the treatment of cardiovascular diseases and duodenal ulcers” (LABORATOIRES UPSA, priority 1989, dated 1990)
